Results published in US20100267774A1, “P38 MAP KINASE INHIBITORS” (CHROMA THERAPEUTICS LTD., priority 2007, published 2010).

Tests used:
p38 MAP Kinase a = target: T1, p38 MAP Kinase a (Homo sapiens, UniProt Q16539); assay: p38 MAP Kinase activity, radiometric filter-binding assay (Upstate); type: biochemical; conditions: IC50 range; read-out: Inhibitor activity versus p38 MAPKa
T1 construct: purchased Upstate (Dundee UK)
Experimental: The ability of compounds to inhibit p38 MAP a Kinase activity was measured in an assay performed by Upstate (Dundee UK). In a final reaction volume of 25 μL, p38 MAP Kinase a (5-10 mU) is incubated with 25 mM Tris pH 7.5, 0.002 mMEGTA, 0.33 mg/mL myelin basic protein, 10 mM MgAcetate and [g-33P-ATP] (specific activity approx. 500 cpm/pmol, concentration as required). The reaction is initiated by the addition of the MgATP mix. After incubation for 40 minutes at room temperature, the reaction is stopped by the addition of 5 μL of a 3% phosphoric acid solution. 10 μL of the reaction is then spotted onto a P30 filtermat and washed three times for 5 minutes in 75 mM phosphoric acid and once in methanol prior to drying and scintillation counting.
Duplicate data points are generated from a 1/3 log dilution series of a stock solution in DMSO. Nine dilutions steps are made from a top concentration of 10 μM, and a ‘no compound’ blank is included. The standard radiometric filter-binding assay is performed at an ATP concentration at, or close to, the Km. Data from scintillation counts are collected and subjected to free-fit analysis by Prism software. From the curve generated, the concentration giving 50% inhibition is determined and reported.

THP-1 TNFα release = assay: LPS-stimulation of THP-1 cells, TNF-α release by ELISA; type: cell-based; conditions: Homo sapiens, THP-1, 6 h; read-out: Inhibitor activity versus THP-1 TNFα release
Experimental: THP-1 cells were plated in 100 μl at a density of 4×10^4 cells/well in V-bottomed 96 well tissue culture treated plates and incubated at 37° C. in 5% CO2 for 16 hrs. 2 hrs after the addition of the inhibitor in 100 μl of tissue culture media, the cells were stimulated with LPS (E coli strain 005:B5, Sigma) at a final concentration of 1 μg/ml and incubated at 37° C. in 5% CO2 for 6 hrs. TNF-α levels were measured from cell-free supernatants by sandwich ELISA (R&D Systems #QTA00B).

T1 sequence (Q16539 whole entry): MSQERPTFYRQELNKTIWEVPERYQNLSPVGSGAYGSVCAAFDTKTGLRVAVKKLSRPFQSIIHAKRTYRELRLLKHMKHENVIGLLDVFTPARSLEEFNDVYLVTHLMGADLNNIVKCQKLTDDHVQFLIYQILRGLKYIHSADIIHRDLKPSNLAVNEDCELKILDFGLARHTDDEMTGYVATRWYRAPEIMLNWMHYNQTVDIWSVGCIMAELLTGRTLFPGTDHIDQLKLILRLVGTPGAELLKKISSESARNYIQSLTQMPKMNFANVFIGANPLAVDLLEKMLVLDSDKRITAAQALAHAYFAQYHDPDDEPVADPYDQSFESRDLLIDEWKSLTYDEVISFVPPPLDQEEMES

Structure (SMILES)	IC50 (p38 MAP Kinase a) [nM]	IC50 (THP-1 TNFα release) [nM]
CC(C)(C)OC[C@H](NCCc1cc(F)c(-n2c(N)c(C(=O)c3ccc(F)cc3)ccc2=O)c(F)c1)C(=O)OC1CCCC1 [Example 31, Cyclopentyl N-(2-{4-[6-amino-5-(4-fluorobenzoyl)-2-oxopyridin-1(2H)-yl]-3,5-difluorophenyl}ethyl)-O-tert-butyl-L-serinate]	100 to 1000	< 100
Nc1c(C(=O)c2ccc(F)cc2F)ccc(=O)n1-c1c(F)cc(CCN[C@H](C(=O)OC2CCCC2)c2ccccc2)cc1F [Example 34, Cyclopentyl (2S)-[(2-{4-[6-amino-5-(2,4-difluorobenzoyl)-2-oxopyridin-1(2H)-yl]-3,5-difluorophenyl}ethyl)amino](phenyl)acetate]	< 100	< 100
Nc1c(C(=O)c2ccc(F)cc2F)ccc(=O)n1-c1c(F)cc(CCN[C@H](C(=O)OC2CCCC2)C2CCCCC2)cc1F [Example 36, Cyclopentyl (2S)-[(2-{4-[6-amino-5-(2,4-difluorobenzoyl)-2-oxopyridin-1(2H)-yl]-3,5-difluorophenyl}ethyl)amino](cyclohexyl)acetate]	100 to 1000	< 100
Nc1c(C(=O)c2ccc(F)cc2F)ccc(=O)n1-c1c(F)cc(CCN[C@@H](C(=O)OC2CCCC2)c2ccccc2)cc1F [Example 42, Cyclopentyl (2R)-[(2-{4-[6-amino-5-(2,4-difluorobenzoyl)-2-oxopyridin-1(2H)-yl]-3,5-difluorophenyl}ethyl)amino](phenyl)acetate]	< 100	< 100

Now from value to compound:

IC50 (p38 MAP Kinase a) [nM]	IC50 (THP-1 TNFα release) [nM]	Structure (SMILES)
100 to 1000	< 100	CC(C)C[C@H](NCCc1cc(F)c(-n2c(N)c(C(=O)c3ccc(F)cc3F)ccc2=O)c(F)c1)C(=O)OC(C)(C)C [Example 37, tert-butyl N-(2-{4-[6-amino-5-(2,4-difluorobenzoyl)-2-oxopyridin-1(2H)-yl]-3,5-difluorophenyl}ethyl)-L-leucinate]
100 to 1000	< 100	CC(C)C[C@@H](NCCc1cc(F)c(-n2c(N)c(C(=O)c3ccc(F)cc3F)ccc2=O)c(F)c1)C(=O)OC1CCCC1 [Example 38, Cyclopentyl N-(2-{4-[6-amino-5-(2,4-difluorobenzoyl)-2-oxopyridin-1(2H)-yl]-3,5-difluorophenyl}ethyl)-D-leucinate]
100 to 1000	< 100	CC(C)C[C@@H](NCCc1cc(F)c(-n2c(N)c(C(=O)c3ccc(F)cc3F)ccc2=O)c(F)c1)C(=O)OC(C)(C)C [Example 39, tert-butyl N-(2-{4-[6-amino-5-(2,4-difluorobenzoyl)-2-oxopyridin-1(2H)-yl]-3,5-difluorophenyl}ethyl)-D-leucinate]
< 100	< 100	CC(C)(C)OC[C@H](NCCc1cc(F)c(-n2c(N)c(C(=O)c3ccc(F)cc3F)ccc2=O)c(F)c1)C(=O)OC1CCCC1 [Example 40, Cyclopentyl N-(2-{4-[6-amino-5-(2,4-difluorobenzoyl)-2-oxopyridin-1(2H)-yl]-3,5-difluorophenyl}ethyl)-O-tert-butyl-L-serinate]
< 100	< 100	CC(C)(C)OC[C@H](NCCc1cc(F)c(-n2c(N)c(C(=O)c3ccc(F)cc3F)ccc2=O)c(F)c1)C(=O)OC(C)(C)C [Example 41, tert-butyl N-(2-{4-[6-amino-5-(2,4-difluorobenzoyl)-2-oxopyridin-1(2H)-yl]-3,5-difluorophenyl}ethyl)-O-tert-butyl-L-serinate]
< 100	< 100	CC(C)[C@H](NCCc1cc(F)c(-n2c(N)c(C(=O)c3ccc(F)cc3F)ccc2=O)c(F)c1)C(=O)OC1CCCC1 [Example 43, Cyclopentyl N-[2-(4-{6-amino-5-[(2,4-difluorophenyl)carbonyl]-2-oxopyridin-1(2H)-yl}-3,5 difluorophenyl)ethyl]-L-valinate]
